From EP4722212A1, “NOVEL COMPOUND FOR INHIBITING PROTEIN KINASES AND PHARMACEUTICAL COMPOSITION COMPRISING SAME” (Magicbullettherapeutics Co., Ltd., priority 2023, dated 2024)

How the values were obtained:
[1] = tested on: SW480; assay: Cell line inhibition analysis (CCK-8, 72 h); format: cell-based; conditions: Homo sapiens, read-out: Cell growth inhibition GI50 SW480
Description: (§1) C4-2B and 22Rv1 cells were purchased from ATCC and cultured according to the manufacturer's instructions. The cells were seeded in 96-well plates at 7×10^3cells/100 µl/well and allowed to attach for one day. After removing the culture medium, 90 µl/well of fresh culture medium was added, followed by addition of 10 µl/well of culture medium containing compounds at nine concentrations (0.076-500 µM) serially diluted 3-fold and DMSO control to achieve final concentrations of 0-50 µM, and then cultured for 72 hours in a 37 °C CO2 incubator. Cell proliferation after 72 hours was assessed by adding 10 µl/well of CCK-8 solution, orbital shaking for 30 seconds, then incubating at 37 °C CO2 incubator for 2 hours and measuring absorbance at 450 nm using a microplate reader. The measured absorbance values were corrected by subtracting the absorbance of wells containing only culture medium and CCK-8 solution, and GI50 values were calculated using GraphPad Prism 8 software.
(§2) Meanwhile, in a separate 96-well plate, cells were seeded at 7 × 10^3 cells/100 µl/well, allowed to attach for one day, CCK-8 solution was added, and absorbance was measured to establish the 'Growth (%) = 0' value.
(§3) Furthermore, experiments were conducted on A172, A549, HCI-H460, AsPC-1, MIA-Paca-2, DLD-1, HCT-116, HT-29, SW480, SW620, MDA-MB-231, and SKOV3 cell lines using the same method, with results shown in Tables 9 and 10 below [* <1 µM: A, <5 µM: B, <10 µM: C, >10 µM: D].

[2] = tested on: SW620; assay: Cell line inhibition analysis (CCK-8, 72 h); format: cell-based; conditions: Homo sapiens, SW-620; read-out: Cell growth inhibition GI50 SW620
Description: as §1, §2, §3

[3] = tested on: MDA-MB-231; assay: Cell line inhibition analysis (CCK-8, 72 h); format: cell-based; conditions: Homo sapiens, read-out: Cell growth inhibition GI50 MDA-MB-231
Description: as §1, §2, §3

[4] = tested on: AsPC-1; assay: Cell line inhibition analysis (CCK-8, 72 h); format: cell-based; conditions: Homo sapiens, ASPC1; read-out: Cell growth inhibition GI50 AsPC-1
Description: as §1, §2, §3

[5] = tested on: HCT-116; assay: Cell line inhibition analysis (CCK-8, 72 h); format: cell-based; conditions: Homo sapiens, read-out: Cell growth inhibition GI50 HCT-116
Description: as §1, §2, §3

[6] = tested on: A549; assay: Cell line inhibition analysis (CCK-8, 72 h); format: cell-based; conditions: Homo sapiens, read-out: Cell growth inhibition GI50 A549
Description: as §1, §2, §3

[7] = tested on: HT-29; assay: Cell line inhibition analysis (CCK-8, 72 h); format: cell-based; conditions: Homo sapiens, read-out: Cell growth inhibition GI50 HT-29
Description: as §1, §2, §3

[8] = tested on: DLD-1; assay: Cell line inhibition analysis (CCK-8, 72 h); format: cell-based; conditions: Homo sapiens, read-out: Cell growth inhibition GI50 DLD-1
Description: as §1, §2, §3

[9] = tested on: MIA-Paca-2; assay: Cell line inhibition analysis (CCK-8, 72 h); format: cell-based; conditions: Homo sapiens, read-out: Cell growth inhibition GI50 MIA-Paca-2
Description: as §1, §2, §3

[10] = tested on: A172; assay: Cell line inhibition analysis (CCK-8, 72 h); format: cell-based; conditions: Homo sapiens, A 172; read-out: Cell growth inhibition GI50 A172
Description: as §1, §2, §3

[11] = tested on: SKOV3; assay: Cell line inhibition analysis (CCK-8, 72 h); format: cell-based; conditions: Homo sapiens, SK-OV-3; read-out: Cell growth inhibition GI50 SKOV3
Description: as §1, §2, §3

[12] = tested on: HCI-H460; assay: Cell line inhibition analysis (CCK-8, 72 h); format: cell-based; conditions: read-out: Cell growth inhibition GI50 HCI-H460
Description: as §1, §2, §3

[13] = tested on: 22Rv1; assay: Cell line inhibition analysis (CCK-8, 72 h); format: cell-based; conditions: Homo sapiens; 22Rv1, 72 hours; read-out: Cell growth inhibition GI50 22Rv1
Description: as §1, §2

[14] = tested on: C4-2B; assay: Cell line inhibition analysis (CCK-8, 72 h); format: cell-based; conditions: read-out: Cell growth inhibition GI50 C4-2B
Description: as §1, §2

[15] = target: T1, Src (Homo sapiens, UniProt P12931); assay: Enzyme activity inhibition (Reaction Biology); format: biochemical
T1 construct: purchased Reaction Biology (RBC)
Description: (§4) [* <10 nM: A, <100 nM: B, >100 nM: C]. [Table 7]

[16] = target: T2, BMX (Homo sapiens, UniProt P51813); assay: Enzyme activity inhibition (Reaction Biology); format: biochemical
T2 construct: purchased Reaction Biology (RBC)
T2 sequence (P51813 1-675): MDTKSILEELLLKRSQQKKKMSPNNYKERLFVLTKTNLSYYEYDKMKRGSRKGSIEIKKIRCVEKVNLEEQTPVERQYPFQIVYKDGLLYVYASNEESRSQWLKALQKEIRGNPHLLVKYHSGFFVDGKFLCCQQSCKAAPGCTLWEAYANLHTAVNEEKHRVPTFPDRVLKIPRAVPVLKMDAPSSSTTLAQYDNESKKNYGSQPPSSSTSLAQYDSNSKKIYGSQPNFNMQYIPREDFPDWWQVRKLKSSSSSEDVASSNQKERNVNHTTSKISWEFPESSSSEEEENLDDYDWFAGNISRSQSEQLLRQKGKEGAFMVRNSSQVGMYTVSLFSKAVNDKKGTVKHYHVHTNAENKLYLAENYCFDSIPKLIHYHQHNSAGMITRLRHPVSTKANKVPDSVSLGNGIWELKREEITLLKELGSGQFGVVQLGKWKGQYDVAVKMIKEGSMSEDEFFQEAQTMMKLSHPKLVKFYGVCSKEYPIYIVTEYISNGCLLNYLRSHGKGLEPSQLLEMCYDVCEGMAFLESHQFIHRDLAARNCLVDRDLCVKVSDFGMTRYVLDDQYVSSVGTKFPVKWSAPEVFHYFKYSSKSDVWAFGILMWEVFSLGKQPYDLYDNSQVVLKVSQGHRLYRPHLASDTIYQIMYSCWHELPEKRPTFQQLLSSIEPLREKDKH
Description: as §4

[17] = target: T3, ACK1 (Homo sapiens, UniProt Q07912); assay: Enzyme activity inhibition (Reaction Biology); format: biochemical
T3 construct: purchased Reaction Biology (RBC)
Description: as §4

T1 sequence (P12931 whole entry): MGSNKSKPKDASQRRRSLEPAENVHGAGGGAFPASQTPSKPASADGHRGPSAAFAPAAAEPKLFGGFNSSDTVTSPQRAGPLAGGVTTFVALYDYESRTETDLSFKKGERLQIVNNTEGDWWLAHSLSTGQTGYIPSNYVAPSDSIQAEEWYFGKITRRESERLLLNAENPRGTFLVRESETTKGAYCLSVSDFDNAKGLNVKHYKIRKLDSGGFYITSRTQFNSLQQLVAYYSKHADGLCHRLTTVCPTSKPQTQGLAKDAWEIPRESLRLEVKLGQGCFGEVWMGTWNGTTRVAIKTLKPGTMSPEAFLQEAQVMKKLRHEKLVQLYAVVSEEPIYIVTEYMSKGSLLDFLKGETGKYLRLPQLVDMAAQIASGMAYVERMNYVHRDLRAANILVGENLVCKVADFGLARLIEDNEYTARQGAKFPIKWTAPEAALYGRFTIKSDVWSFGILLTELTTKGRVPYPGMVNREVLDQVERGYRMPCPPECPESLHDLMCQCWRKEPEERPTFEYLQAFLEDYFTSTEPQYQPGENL
T3 sequence (Q07912 whole entry): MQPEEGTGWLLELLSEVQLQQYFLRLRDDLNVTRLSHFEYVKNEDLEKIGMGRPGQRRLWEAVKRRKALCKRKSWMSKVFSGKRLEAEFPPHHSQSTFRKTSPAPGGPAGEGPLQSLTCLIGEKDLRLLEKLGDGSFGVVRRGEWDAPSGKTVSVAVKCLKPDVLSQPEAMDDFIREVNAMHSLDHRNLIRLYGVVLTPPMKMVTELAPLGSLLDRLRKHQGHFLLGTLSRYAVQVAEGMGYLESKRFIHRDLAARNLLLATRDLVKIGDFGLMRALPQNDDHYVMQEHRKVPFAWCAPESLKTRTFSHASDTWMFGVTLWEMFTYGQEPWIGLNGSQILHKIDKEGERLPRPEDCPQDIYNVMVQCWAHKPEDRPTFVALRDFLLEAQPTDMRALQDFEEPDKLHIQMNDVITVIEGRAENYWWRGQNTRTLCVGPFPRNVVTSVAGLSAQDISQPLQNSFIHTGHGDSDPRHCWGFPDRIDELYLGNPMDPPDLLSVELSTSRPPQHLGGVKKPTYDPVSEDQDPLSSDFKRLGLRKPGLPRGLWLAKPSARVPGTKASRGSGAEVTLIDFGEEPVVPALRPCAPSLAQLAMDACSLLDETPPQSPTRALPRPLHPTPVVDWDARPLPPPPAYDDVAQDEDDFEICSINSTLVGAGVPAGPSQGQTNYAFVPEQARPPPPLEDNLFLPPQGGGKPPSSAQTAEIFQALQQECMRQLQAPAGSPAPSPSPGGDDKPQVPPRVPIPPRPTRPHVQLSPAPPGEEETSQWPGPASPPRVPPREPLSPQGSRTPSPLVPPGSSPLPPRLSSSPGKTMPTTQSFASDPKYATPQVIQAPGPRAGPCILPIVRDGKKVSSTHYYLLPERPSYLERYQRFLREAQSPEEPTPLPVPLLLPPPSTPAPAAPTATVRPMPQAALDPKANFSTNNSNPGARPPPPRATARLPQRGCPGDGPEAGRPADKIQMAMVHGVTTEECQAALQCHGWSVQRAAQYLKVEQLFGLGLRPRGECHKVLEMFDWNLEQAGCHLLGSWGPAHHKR

GI50 [1] [µM]	GI50 [2] [µM]	GI50 [3] [µM]	GI50 [4] [µM]	GI50 [5] [µM]	GI50 [6] [µM]	GI50 [7] [µM]	GI50 [8] [µM]	GI50 [9] [µM]	GI50 [11] [µM]	GI50 [12] [µM]	GI50 [13] [µM]	IC50 [15] [µM]	IC50 [16] [µM]	IC50 [17] [µM]	SMILES	GI50 [10] [µM]	GI50 [14] [µM]
< 1	< 1	< 1	< 1	< 1											Cc1ccc(NC(=O)c2cccc(C(F)(F)F)c2)cc1N1Cc2cnc(Nc3cnn(CC(F)(F)F)c3)nc2C2(CC2)C1=O [Compound 64, N-(4-methyl-3-(7'-oxo-2'-((1-(2,2,2-trifluoroethyl)-1H-pyrazol-4-yl)amino)-5'H-spiro[cyclopropane-1,8'-pyrido[4,3-d]pyrimidine]-6'(7'H)-yl)phenyl)-3-(trifluoromethyl)benzamide]		
1 to 5	< 1	1 to 5	1 to 5	< 1	> 10	> 10	1 to 5	1 to 5	1 to 5	1 to 5	5 to 10	< 0.01	< 0.01	< 0.01	Cc1ccc(NC(=O)c2cncc(C(F)(F)F)c2)cc1N1Cc2cnc(N)nc2C2(CC2)C1=O [Compound 24, N-(3-(2'-amino-7'-oxo-5'H-spiro[cyclopropane-1,8'-pyrido[4,3-d]pyrimidine]-6'(7'H)-yl)-4-methylphenyl)-5-(trifluoromethyl)nicotinamide]	< 1	1 to 5
1 to 5	1 to 5	1 to 5	1 to 5	1 to 5							> 10	0.01 to 0.1	< 0.01	0.01 to 0.1	Cc1ccc(NC(=O)c2cccc(C(F)(F)F)c2)cc1N1Cc2cnc(NC3CC3)nc2C2(CC2)C1=O [Compound 3, N-(3-(2'-(cyclopropylamino)-7'-oxo-5'H-spiro[cyclopropane-1,8'-pyrido[4,3-d]pyrimidine]-6'(7'H)-yl)-4-methylphenyl)-3-(trifluoromethyl)benzamide]		1 to 5
1 to 5	1 to 5	1 to 5	< 1	1 to 5							< 1	< 0.01	< 0.01	< 0.01	Cc1ccc(NC(=O)c2cc(F)cc(C(F)(F)F)c2)cc1N1Cc2cnc(N)nc2C2(CC2)C1=O [Compound 7, N-(3-(2'-amino-7'-oxo-5'H-spiro[cyclopropane-1,8'-pyrido[4,3-d]pyrimidine]-6'(7'H)-yl)-4-methylphenyl)-3-fluoro-5-(trifluoromethyl)benzamide]		< 1
1 to 5	1 to 5	1 to 5	< 1	< 1	> 10	> 10	1 to 5	< 1	1 to 5	1 to 5	1 to 5	0.01 to 0.1	0.01 to 0.1	0.01 to 0.1	Cc1ccc(NC(=O)c2cccc(C(F)(F)F)c2)cc1N1Cc2cnc(N)nc2C2(CC2)C1=O [Compound 2, N-(3-(2'-amino-7'-oxo-5'H-spiro[cyclopropane-1,8'-pyrido[4,3-d]pyrimidine]-6'(7'H)-yl)-4-methylphenyl)-3-(trifluoromethyl)benzamide]	< 1	1 to 5
					1 to 5	5 to 10									Cc1ccc(NC(=O)c2cccc(C(F)(F)F)c2)cc1N1Cc2cnc(NCCO)nc2C2(CC2)C1=O [Compound 126, N-(3-(2'-((2-hydroxyethyl)amino)-7'-oxo-5'H-spiro[cyclopropane-1,8'-pyrido[4,3-d]pyrimidine]-6'(7'H)-yl)-4-methylphenyl)-3-(trifluoromethyl)benzamide]	1 to 5	
					> 10	> 10									Cc1ccc(NC(=O)c2cncc(C(F)(F)F)c2)cc1N1Cc2cnc(NCCO)nc2C2(CC2)C1=O [Compound 130, N-(3-(2'-((2-hydroxyethyl)amino)-7'-oxo-5'H-spiro[cyclopropane-1,8'-pyrido[4,3-d]pyrimidine]-6'(7'H)-yl)-4-methylphenyl)-5-(trifluoromethyl)nicotinamide]	1 to 5	
